# Assay results taken from the supplement of paper PMC10307832.
# Assays:
# Test in all cases: relative viability (nuclei count vs DMSO), 5 days (fraction); higher = more cells survive
# Pictilisib + AZD7762 = compound: CS(=O)(=O)N1CCN(Cc2cc3nc(-c4cccc5[nH]ncc45)nc(N4CCOCC4)c3s2)CC1 [Pictilisib] + NC(=O)Nc1cc(-c2cccc(F)c2)sc1C(=O)N[C@H]1CCCNC1 [AZD7762] (partner 0.2 µM)
# Procedure, shortened: (§1)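 Each reported value is a median over duplicate plates. It expresses relative viability: treated-well nuclei count divided by vehicle-well nuclei count. Lung cancer cell lines in 1536-well plates were dosed by pin tool a day after seeding, alone with one drug or with a fixed anchor-drug dose plus five library-drug doses (not always all listed) in √10 steps, and nuclei were counted after 5 days.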
# MK-2206 + Lapatinib = compound: NC1(c2ccc(-c3nc4ccn5c(=O)[nH]nc5c4cc3-c3ccccc3)cc2)CCC1 [MK-2206] + CS(=O)(=O)CCNCc1ccc(-c2ccc3ncnc(Nc4ccc(OCc5cccc(F)c5)c(Cl)c4)c3c2)o1 [Lapatinib] (partner 2 µM)
# Procedure, shortened: as §1
# MK-2206 + Bortezomib = compound: NC1(c2ccc(-c3nc4ccn5c(=O)[nH]nc5c4cc3-c3ccccc3)cc2)CCC1 [MK-2206] + CC(C)C[C@H](NC(=O)[C@H](Cc1ccccc1)NC(=O)c1cnccn1)B(O)O [Bortezomib] (partner 0.002 µM)
# Procedure, shortened: as §1
# MK-2206 + Linsitinib = compound: NC1(c2ccc(-c3nc4ccn5c(=O)[nH]nc5c4cc3-c3ccccc3)cc2)CCC1 [MK-2206] + C[C@]1(O)C[C@@H](c2nc(-c3ccc4ccc(-c5ccccc5)nc4c3)c3c(N)nccn32)C1 [Linsitinib] (partner 1 µM)
# Procedure, shortened: as §1
# Pictilisib + Bortezomib = compound: CS(=O)(=O)N1CCN(Cc2cc3nc(-c4cccc5[nH]ncc45)nc(N4CCOCC4)c3s2)CC1 [Pictilisib] + CC(C)C[C@H](NC(=O)[C@H](Cc1ccccc1)NC(=O)c1cnccn1)B(O)O [Bortezomib] (partner 0.002 µM)
# Procedure, shortened: as §1
Cell Line,relative viability (Pictilisib + AZD7762; first compound 0.02 µM),relative viability (Pictilisib + AZD7762; first compound 0.06325 µM),relative viability (Pictilisib + AZD7762; first compound 0.6325 µM),relative viability (Pictilisib + AZD7762; first compound 2 µM),relative viability (MK-2206 + Lapatinib; first compound 0.01 µM),relative viability (MK-2206 + Lapatinib; first compound 0.03162 µM),relative viability (MK-2206 + Lapatinib; first compound 0.3162 µM),relative viability (MK-2206 + Lapatinib; first compound 1 µM),relative viability (MK-2206 + Bortezomib; first compound 0.01 µM),relative viability (MK-2206 + Bortezomib; first compound 0.03162 µM),relative viability (MK-2206 + Bortezomib; first compound 0.3162 µM),relative viability (MK-2206 + Bortezomib; first compound 1 µM),relative viability (MK-2206 + Linsitinib; first compound 0.01 µM),relative viability (MK-2206 + Linsitinib; first compound 0.03162 µM),relative viability (MK-2206 + Linsitinib; first compound 0.3162 µM),relative viability (MK-2206 + Linsitinib; first compound 1 µM),relative viability (Pictilisib + Bortezomib; first compound 0.02 µM),relative viability (Pictilisib + Bortezomib; first compound 0.06325 µM),relative viability (Pictilisib + Bortezomib; first compound 0.6325 µM),relative viability (Pictilisib + Bortezomib; first compound 2 µM)
HOP-62,0.759,0.668,0.469,0.459,0.946,1.12,0.939,1.26,0.726,0.759,0.429,0.743,0.783,0.757,1.01,0.998,1.15,0.986,0.693,0.652
LC-2-ad,0.814,0.799,0.646,0.407,0.944,1.08,1.03,0.542,0.971,1.09,1.01,0.91,0.813,0.843,0.909,0.781,1.05,1,0.633,0.56
SW 900,0.747,0.623,0.431,0.352,–,–,–,–,–,–,–,–,–,–,–,–,–,–,–,–
NCI-H322M,0.55,0.607,0.495,0.339,0.599,0.634,0.604,0.68,1.12,1.35,1.31,1.41,0.912,0.949,0.869,0.942,1.11,1.2,0.873,0.907
SK-LU-1,–,–,–,–,0.91,0.861,0.822,0.967,1.28,1.22,1.01,0.747,1.19,1.02,0.987,1.01,1.64,1.27,0.81,0.63
NCI-H1734,0.559,0.537,0.357,0.192,0.758,1.05,0.789,0.869,0.847,1.02,0.66,0.725,0.816,0.934,0.632,0.584,0.995,0.903,0.585,0.335
HCC-44,0.978,0.994,1.05,1.22,1.01,1.01,1.05,1.07,0.921,0.86,0.877,0.874,0.662,0.652,0.556,0.445,1.04,0.9,0.994,0.631
NCI-H1703,0.148,0.175,0.104,0.119,1.24,0.959,0.71,0.571,0.338,0.28,0.316,0.223,1.01,1.03,0.544,0.748,0.327,0.235,0.19,0.13
NCI-H2170,0.879,0.917,0.645,0.422,0.312,0.276,0.263,0.258,–,–,–,–,–,–,–,–,–,–,–,–
NCI-H1395,0.44,0.416,0.375,0.338,1.01,1.3,0.774,0.759,–,–,–,–,1.22,1.03,0.915,1.23,–,–,–,–
NCI-H1355,0.678,0.689,0.546,0.362,0.97,1.04,0.851,0.743,1.22,1.25,1.07,1.14,0.768,0.805,0.726,0.786,1.23,1.2,1.14,0.678
NCI-H1650,–,–,–,–,0.685,0.768,0.687,0.784,0.196,0.195,0.207,0.2,–,–,–,–,0.199,0.205,0.207,0.172
IA-LM,–,–,–,–,–,0.765,0.695,0.438,0.868,0.928,0.887,0.699,0.55,0.632,0.597,0.409,0.791,0.721,0.732,0.308
NCI-H1666,0.814,0.763,0.804,0.532,0.633,0.577,0.354,0.386,0.832,0.801,0.613,0.5,0.753,0.73,0.695,0.709,0.854,0.744,0.545,0.388
HCC-78,0.569,0.559,0.395,0.233,0.703,0.376,0.88,0.703,0.415,0.606,0.475,0.395,0.505,0.576,0.388,0.316,0.458,0.384,0.294,0.2
H3255,0.814,0.8,0.832,0.578,0.268,0.224,0.18,0.192,0.718,0.977,0.718,0.564,0.975,0.924,0.847,0.726,0.881,0.832,0.632,0.395
NCI-H23,0.203,0.258,0.209,0.155,0.982,0.98,1.16,1.1,0.906,1.04,0.91,0.975,0.583,0.625,0.58,0.628,0.936,1.12,0.768,0.445
NCI-H1944,0.555,0.477,0.319,0.236,0.829,0.849,0.823,0.904,–,–,–,–,1.27,1.17,1.15,1.17,–,–,–,–
